EC50 data for 24 compounds are collected here from PubChem BioAssay AID434935 (Broad Institute, 2010).

Results filed as inconclusive are left out. Activity calls are given as the source filed them.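 How the source made its calls: active means EC50 no higher than ten times the top concentration tested; inconclusive means flat fit with growth inhibition between 30% and 70%, or poor fit; inactive means EC50 above ten times the top concentration tested.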 Bounds are passed on as bounds.

The test system of this assay is C. albicans CaCi-8 + fluconazole, Alamar Blue growth, 48 h. The assay is described as follows: resistant C. albicans growth reduction under fluconazole – CaCi-8 strain, Alamar Blue fluorescence, SAR follow-up (AID 434935). In general terms: Resazurin is reduced to fluorescent resorufin, in cell work by metabolically active cells.

Regarding `CCCC(=O)NC(c1ccccc1)c1ccc2cccnc2c1O` (centres undefined), the EC50 was 1110 nM.

For the compound `O=C(NNC1=C(C(=O)C(F)(F)F)CCC1)c1ccc(Cl)cc1`, the EC50 was 6840 nM.

With `Clc1ccc2c(c1)C(c1cccs1)=NNC(c1cccnc1)=N2`, the concentration giving a half-maximal response (EC50) is below 100 nM.

As for `O=c1c2cc(Br)ccc2nc(-c2cccc(C(F)(F)F)c2)n1O`, the EC50 was 3100 nM.

Consider `COc1ccc(-n2nc(C(=O)NCC(=O)N3CCN(c4ccccc4)CC3)c3ccccc3c2=O)c(OC)c1`, for which the EC50 was 1160 nM.

Regarding `Cc1ccc(Nc2nc(N)c([N+](=O)[O-])c(N3CCC(C)CC3)n2)cc1C`, the EC50 is 6150 nM.

With `Cc1ccc(/C=C/C(=O)c2ccccc(=O)c2O)cc1C`, the EC50 is > 26000 nM (inactive).

With `COc1ccc(-c2nnc(NC(=O)c3ccc(F)cc3)o2)cc1`, the concentration giving a half-maximal response (EC50) is 146 nM.

Turning to `CCOC(=O)N1C(=O)C2(CCCCC2)N(c2ccc(C)cc2)C1=S`, the EC50 was 1360 nM.

`Cc1ccc(C(=O)c2coc3c2C(=O)C(=O)c2ccccc2-3)cc1`: the EC50 is 226 nM.

On to `Nc1nccnc1C(=O)Nc1nnc(SCc2ccc(Cl)cc2)s1`, for which the EC50 is 1430 nM.

On to `CC(C)N1CCc2c(sc(NC(=O)c3nc4ccccc4s3)c2C(N)=O)C1`, for which the EC50 is 600 nM.

Turning to `Cc1nc2ccccc2cc1OCc1ccc(F)cc1`, the EC50 is 7270 nM.

With `Cc1ccc(C(=O)Nc2cccc(-c3cn4ccccc4n3)c2)cc1`, the EC50 was 2780 nM.

For `CC(C)COCc1ccc(O)c2ncccc12`, the concentration giving a half-maximal response (EC50) was 7460 nM.

Take `O=C(Nc1nnc(-c2ccc3c(c2)CCCC3)o1)c1ccc(Cl)cc1Cl`: the EC50 is 152 nM.

Consider `O=C(Nc1sc2c(c1C(=O)c1ccc(Cl)cc1)CCCC2)c1cccnc1`, for which the EC50 was 938 nM.

Take `O=C(Oc1c(Cl)cc(Cl)c2cccnc12)c1cccs1`: the EC50 was 192 nM.

Take `O=C(Nc1nc(-c2ccccn2)cs1)c1ccc(Br)s1`: the EC50 is 2360 nM.

With `O=C(Nc1nnc(CCc2ccccc2)s1)c1ccco1`, the EC50 was 3110 nM.

Take `COc1cc2c(cc1NC(=O)c1ccco1)CCCC2`: the EC50 is below 100 nM.

With `Cc1oc2c(F)c(F)c(F)c(F)c2c1S(=O)(=O)Nc1cccc(C(F)(F)F)c1`, the EC50 was 9310 nM.

With `CCCC(=O)NC(c1ccc(Cl)cc1)c1ccc2cccnc2c1O` (centres undefined), the concentration for a half-maximal effect (EC50) is 607 nM.

Take `O=C(Nc1nnc(SCc2ccc(Cl)cc2)s1)c1ccc2ccccc2n1`: the EC50 was 771 nM.

One may read the EC50 as the concentration at which the effect is half-maximal.
